Here are results for seven compounds from article PMC10794137, “A new antibiotic traps lipopolysaccharide in its intermembrane transporter” (Nature, 2024).

Assay [1] deals with Acinetobacter baylyi ADP1 wild type. The assay can be described thus: microbe, parasite or virus in culture. It is filed as cell-based. Particulars: A. baylyi wild type. The protocol: (§1) Culture, genetic manipulation and MIC measurements of A. baylyi ADP1 were conducted according to previously reported procedures[46],[51]. Point mutants were constructed in a two-step procedure following ref. [52] with the introduction and excision of the integration cassette at codon 66 of pepA, wherein the excising fragment of otherwise wild-type chromosomal DNA sequence from codon 406 of pepA to codon 193 of lptG bore the desired mutation and the resulting clones were screened by amplicon sequencing from codon 81 of HolC to codon 501 of GpmI, whereas lpxM deletion was achieved following the same procedure except that the integration cassette insertion and excision removed codons 79–279 of lpxM to avoid interference with neighbouring and overlapping genes that a larger deletion may risk and replaced codon 78 with an ochre stop codon to prevent a readthrough resulting in an aberrant fusion, with the excising fragment sequence spanning from codon 211 of sppA to codon 497 of ComA and verified by amplicon sequencing from codon 94 of MhpC to codon 327 of ComA as well as by absence of a PCR product corresponding to a region spanning codons 79 to 279 of lpxM to check for duplications. A deletion of the lon protease was made in the same manner to produce the stain used for expression and purification of LptB2FG to mimic the BL21 strain of E. coli used in the rest of purifications, for which the region encompassing 72 base pairs (bp) upstream of the lon start codon and 1 bp downstream of the lon stop codon was excised after being replaced with the same integration cassette, yielding a markerless deletion, with the excising fragment sequence spanning from codon 491 of ArnT to codon 40 of 45_DOPA_Dioxygenase and verified by amplicon sequencing spanning from codon 322 of ArnT to codon 221 of 45_DOPA_Dioxygenase as well as by absence of a PCR product corresponding to a region spanning from codons 328 to 768 of lon to check for duplications. Following amplicon confirmation, three validated isolates of each constructed mutant were tested for susceptibility to a panel of antibiotics with […] known mechanisms of action as a further validation step to ensure congruence of phenotypes across replicates, which was confirmed in all cases and one of the validated replicates was later used for MIC measurements reported here.
(§2) MIC determinations were performed by broth microdilution in line with CLSI guidelines (CLSI M07-A11 2018). Bacterial inocula were prepared by diluting overnight liquid cultures in LB. Antibacterial panels containing antibacterial solutions were inoculated with an appropriate volume of inoculum to give a final inoculum of about 5 × 10^5 c.f.u. ml^−1 and desired test concentrations of antibacterial agents in standard 96-well plates with 0.1 ml of culture per well. The test plates were incubated for 20–24 h and optical density (OD600) was recorded using a plate reader. MIC values corresponded to the lowest compound concentration inhibiting bacterial growth beyond which OD ceased to decrease.

For assay [2], the system named is Acinetobacter baylyi ΔlpxM. The assay can be described thus: MIC by broth microdilution, A. baylyi ΔlpxM. The class given is cell-based. The protocol: as §1, §2
For orientation: Dilution methods test growth across graded concentrations, often in twofold steps.

Assay [3] concerns His-tagged LptB2FGC (ablLptB2FGC). Particulars: SPA. The protocol: The binding of radioligand [^3H]-RO7223280 to ablLptB2FG and ablLptB2FGC was measured by bead-based SPA. All steps were performed in SEC buffer (20 mM Tris pH 7.5, 300 mM NaCl, 5% glycerol, 0.5 mM TCEP, 0.05% DDM ± 10 µM E.coli J5 LPS(Rc) […] (Enzo Life Sciences)) and at 4 °C unless otherwise indicated. Purified protein was first incubated with Copper PVT HIS-tag beads (Perkin Elmer) for 1.5 h under gentle rotation. Twelve radioligand concentrations were added to the PVT–protein mix and incubated for another 30 min. […] The SPA plates were sealed (TopSeal, Perkin Elmer) and stored at 4 °C overnight. Before the measurement, plates were mixed on a shaker for 20 min, 750 rpm at room temperature and the seal was thoroughly wiped with antistatic spray to reduce electrostatic events. Scintillation data were recorded with a Topcount NXT C384, in the form of three independent replicates each consisting of three technical triplicates. Specific binding was calculated by subtracting non-specific binding raw counts from total binding raw counts. The dissociation constant Kd and standard deviation of the three independent replicates are reported and were calculated by the GraphPad Prism ‘One site – specific binding’ tool.

The target in assay [4] is His-tagged LptB2FG (ablLptB2FG) (Acinetobacter baylyi, UniProt Q6FFD6+Q6FFD7). The assay can be described thus: Radioligand binding SPA, LptB2FG.
Sequence of His-tagged LptB2FG (ablLptB2FG) (Q6FFD7 1-366): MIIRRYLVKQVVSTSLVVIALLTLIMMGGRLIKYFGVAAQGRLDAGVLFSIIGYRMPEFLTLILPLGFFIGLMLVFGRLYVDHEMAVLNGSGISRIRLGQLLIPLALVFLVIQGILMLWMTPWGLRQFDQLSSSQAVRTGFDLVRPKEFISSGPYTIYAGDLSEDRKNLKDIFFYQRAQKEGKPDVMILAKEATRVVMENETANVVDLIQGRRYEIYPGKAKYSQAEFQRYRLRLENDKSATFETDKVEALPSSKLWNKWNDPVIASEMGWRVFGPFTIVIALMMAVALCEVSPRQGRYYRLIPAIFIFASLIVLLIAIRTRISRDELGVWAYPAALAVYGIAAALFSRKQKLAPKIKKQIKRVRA
Sequence of His-tagged LptB2FG (ablLptB2FG) (Q6FFD6 1-356): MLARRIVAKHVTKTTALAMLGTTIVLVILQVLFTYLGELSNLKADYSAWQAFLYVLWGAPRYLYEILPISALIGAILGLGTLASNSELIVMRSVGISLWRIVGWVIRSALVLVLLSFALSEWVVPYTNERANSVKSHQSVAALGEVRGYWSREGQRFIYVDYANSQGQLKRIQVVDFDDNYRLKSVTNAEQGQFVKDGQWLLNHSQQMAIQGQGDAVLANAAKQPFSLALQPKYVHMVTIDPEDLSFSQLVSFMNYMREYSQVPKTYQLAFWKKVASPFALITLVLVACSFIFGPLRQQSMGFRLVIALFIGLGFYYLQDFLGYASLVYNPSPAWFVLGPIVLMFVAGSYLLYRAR
Sequence of His-tagged LptB2FG (ablLptB2FG) (Q6FC66 1-249 partner): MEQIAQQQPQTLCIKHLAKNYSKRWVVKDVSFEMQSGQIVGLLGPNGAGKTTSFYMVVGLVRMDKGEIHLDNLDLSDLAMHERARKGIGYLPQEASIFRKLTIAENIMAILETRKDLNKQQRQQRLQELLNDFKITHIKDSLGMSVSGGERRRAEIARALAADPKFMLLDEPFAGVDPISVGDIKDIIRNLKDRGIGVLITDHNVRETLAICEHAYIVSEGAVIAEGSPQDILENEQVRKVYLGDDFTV
Procedure: The binding of radioligand [^3H]-RO7223280 to ablLptB2FG and ablLptB2FGC was measured by bead-based SPA. All steps were performed in SEC buffer (20 mM Tris pH 7.5, 300 mM NaCl, 5% glycerol, 0.5 mM TCEP, 0.05% DDM ± 10 µM E.coli J5 LPS(Rc) [sequence] (Enzo Life Sciences)) and at 4 °C unless otherwise indicated. Purified protein was first incubated with Copper PVT HIS-tag beads (Perkin Elmer) for 1.5 h under gentle rotation. Twelve radioligand concentrations were added to the PVT–protein mix and incubated for another 30 min. […] The SPA plates were sealed (TopSeal, Perkin Elmer) and stored at 4 °C overnight. Before the measurement, plates were mixed on a shaker for 20 min, 750 rpm at room temperature and the seal was thoroughly wiped with antistatic spray to reduce electrostatic events. Scintillation data were recorded with a Topcount NXT C384, in the form of three independent replicates each consisting of three technical triplicates. Specific binding was calculated by subtracting non-specific binding raw counts from total binding raw counts. The dissociation constant Kd and standard deviation of the three independent replicates are reported and were calculated by the GraphPad Prism ‘One site – specific binding’ tool.
[5] abbreviates: Acinetobacter baylyi, ADP1WILDTYPE, read-out: MIC.

“And” between values parts separate entries of the source, which are not always exact repeats. Equal entries are not always repeated. Where two headings read alike, the source gives them in different places.

`CO[C@H]1[C@H](OC(=O)c2ccc(C)[nH]2)[C@H](O)[C@@H](Oc2ccc3c(O)c(NC(=O)c4c[nH]c(C(=O)Nc5c(O)c6ccc(O[C@H]7OC(C)(C)[C@@H](OC)[C@H](OC(=O)c8ccc(C)[nH]8)[C@@H]7O)c(C)c6oc5=O)c4C)c(=O)oc3c2C)OC1(C)C` [Coumermycin A1]: the MIC in assay [1] (setting [5]) is 5 µM and 6 µg/mL; in assay [2] (Acinetobacter baylyi) it was 0.16 µM and 0.18 µg/mL.

In the case of `CO[C@@H]1[C@@H](OC(N)=O)[C@@H](O)[C@H](Oc2ccc3c(O)c(NC(=O)c4ccc(O)c(CC=C(C)C)c4)c(=O)oc3c2C)OC1(C)C` [Novobiocin], the MIC in assay [1] (setting [5]) was 4 µM and 2 µg/mL; in assay [2] (Acinetobacter baylyi), 0.6 µM and 0.4 µg/mL.

`CO[C@H]1/C=C/O[C@@]2(C)Oc3c(C)c(O)c4c(O)c(c(/C=N/N5CCN(C)CC5)c(O)c4c3C2=O)NC(=O)/C(C)=C\C=C\[C@H](C)[C@H](O)[C@@H](C)[C@@H](O)[C@@H](C)[C@H](OC(C)=O)[C@@H]1C` [Rifampicin]: the MIC was 1.6 µM and 1.3 µg/mL in assay [1] (setting [5]); 0.6 µM and 0.5 µg/mL in assay [2] (Acinetobacter baylyi).

For the compound `Oc1cc(Cl)ccc1Oc1ccc(Cl)cc1Cl` [Triclosan], the MIC in assay [1] (setting [5]) was 0.126 µM and 0.036 µg/mL; in assay [2] (Acinetobacter baylyi), 0.03 µM and 0.009 µg/mL.

Regarding `CN[C@H](CC(C)C)C(=O)N[C@H]1C(=O)N[C@@H](CC(N)=O)C(=O)N[C@H]2C(=O)N[C@H]3C(=O)N[C@H](C(=O)N[C@H](C(=O)O)c4cc(O)cc(O)c4-c4cc3ccc4O)[C@H](O)c3ccc(c(Cl)c3)Oc3cc2cc(c3O[C@@H]2O[C@H](CO)[C@@H](O)[C@H](O)[C@H]2O[C@H]2C[C@](C)(N)[C@H](O)[C@H](C)O2)Oc2ccc(cc2Cl)[C@H]1O` [Vancomycin], the MIC in assay [1] (setting [5]) was 500 µM and 700 µg/mL; in assay [2] (Acinetobacter baylyi) it was 17 µM and 25 µg/mL.

For the compound `CN1C(=O)[C@H](CCCCN)NC(=O)[C@H](CCCN)NCc2cccnc2Sc2cccc(-c3ccc(C(=O)O)cc3)c2CNC(=O)[C@@H]1Cc1c[nH]c2ccccc12` [[^3H]-RO7223280], the “Binding of radiolabelled 2 to LptB2FGC” value in assay [3] is on record as “not LptB2FGC”. Besides, the “Binding of radiolabelled 2 to LptB2FG” value in assay [4] (binding dependent on presence of LPS) was “bound to LptB2FG”. Further, the Kd in assay [4] (used as constraint for Ki fit) was 86 nM.

As to Bacitracin, the MIC in assay [1] was 700 µg/mL; in assay [1] (read-out: MIC), 500 µM; in assay [2] (A. baylyi ΔlpxM) it was 20 µM and 30 µg/mL.

A word on the Kd: it is the constant that tells how readily two partners part at equilibrium. Higher therefore signals lower affinity.
